Results published in patent US12544451B2, “Intracellular delivery compositions” (BIOND BIOLOGICS LTD., priority 2021, dated 2026).

How the values were obtained:
[1] = Zeta potential measurement (Zeta Sizer Ultra); type: physicochemical; conditions: alternative carriers and HSA before and after PEI modification; STD in separate column
Experimental: Zeta potential measurements were preformed using Zeta Sizer Ultra (Malvern Instruments). Samples' buffers were exchanged to 1 mM NaCl at 1 mg/mL protein concentration. 20 μL from each sample was loaded in zeta cells (DTS1070), five repeats for each sample were measured and the mean zeta potential in mV was obtained for each repeat. The average for the five measurements is reported with the standard deviation. The measurements were performed under the following conditions: temperature 25° C.; run numbers for each repeat 10-40; equilibration time: 60 seconds, without pause after sub runs; 60 seconds pause between repeats; voltage was selected automatic and monomodal analysis method was used in the data processing.
Zeta potential measurements were preformed using Zeta Sizer Ultra (Malvern Instruments), samples buffer was exchanged to 1 mM NaCl at 1 mg/mL protein concentration. 20 μL from each sample were loaded in zeta cells (DTS1070), five repeats for each sample were measured and the mean zeta potential in mV was obtained.

A375 cells [2] = test: Intracellular BRAF inhibition: Annexin V apoptosis assay in A375 cells (IncuCyte, CellTiter-Glo normalisation); type: cell-based; conditions: 1 μM or 3 μM agent, BRAF inhibitor at 10 μM
Experimental: FIGS. 42A-42D. A375 cells were seeded in 96 plate wells for 24 h to allow cells adherence (1500 cells/well). To each well a sample of the tested agent was added at the desired concentration (42A-42B) 1 μM; (42C-42D) […], except BRAF inhibitor, PF-04880594 that was added at 10 μM. (42A, 42C) Red area obtained from the Annexin V red reagent, a commonly used fluorescent dye identifying apoptotic cells, monitored in IncuCyte®. (42B, 42D) Red area normalized to the value obtained by CellTiter-Glo corresponding to intact cells.
Random modification was achieved by reaction of 1C5-Hel20-LC with PEI1800 in the presence of EDC, to give 1C5-Hel20-LC-r-C(O)—NH-PEI1800 (S8). The different constructs of payload conjugated directly to PEI were evaluated for their ability to penetrate A375 cells and induce apoptosis following BRAF inhibition. […]
1C5-Hel20-LC-HSA-PEI (S5C)×n conjugates were prepared by reduction of 1C5-Hel20-LC and activation with 2,2′-Dithiobis(5-nitropyridine) followed by conjugation to HSA-PEI×n. Intracellular BRAF inhibition by the different constructs was evaluated by a functional assay in A375 cells. The different conjugates were incubated with A375 cells in the presence of Annexin V red reagent, for 6 days, while monitoring fluorescence in IncuCyte® to identify apoptotic cells (FIG. 42A, C). […]

A375 cells [3] = test: Internalization of PEI-modified IgG (4.5 PEIs) in the presence of endocytosis inhibitors; type: cell-based; conditions: overnight, PEI-modified mouse IgG (4.5 PEIs)
Experimental: Cationized moieties are thought to internalize using a natural endocytosis mechanism. The two relevant endocytosis mechanisms are caveolin- and clathrin-mediated endocytosis. The exact mechanism of internalization was elucidated by performing the internalization of PEI-modified IgG in the presence of known specific endocytosis inhibitors. A375 cells were incubated overnight with PEI-modified mouse IgG (4.5 PEIs) in the presence of Clathrin inhibitors (Amantadine or Chlorpromazine) or a Caveolin inhibitor (Genistein). […] This corroborates that Caveolin-mediated endocytosis is exploited by the PEI-modified payloads for internalization as inhibition of Clathrin-mediated endocytosis caused a compensatory increase in Caveolin-mediated endocytosis in the cells.

Compound | effect on internalization of PEI-modified IgG (A375 cells [3]) | also measured
Fibrinogen |  | Zeta potential (mV) [1]: −1.4 mV
N#CCCNc1nccc(-c2cn(CC(F)F)nc2-c2cnc3[nH]ccc3c2)n1 [PF-04880594, reference compound] |  | apoptosis (Annexin V red signal) (A375 cells [2]): highly potent cell killer
O=c1c(-c2ccc(O)cc2)coc2cc(O)cc(O)c12 [Genistein] | inhibited the internalization of PEI-modified IgG | 
CN(C)CCCN1c2ccccc2Sc2ccc(Cl)cc21 [Chlorpromazine] | resulted in increased internalization | 
